Entries after “also recorded” stand apart in the source; their conditions may differ.

The term IC50 denotes the concentration needed to halve the response being measured. The term Vmax denotes the top rate of the reaction or transport when substrate is in excess.

Assay [1] addresses T1, SARS-CoV-2 3CL^pro (Severe acute respiratory syndrome coronavirus 2, UniProt P0DTD1). The assay is described as follows: SARS-CoV-2 3CLpro enzymatic inhibition assay (FRET peptide substrate). It is filed as biochemical.
The target of assay [2] is T1, SARS-CoV-2 3CL^pro. As to the kind of experiment: Kinetic parameters of 3CLpro reaction with inhibitor. The note with it: maximum reaction rate of 3CLpro with inhibitor at its IC50. It is filed as biochemical.

Molecule `CC(=O)C1=C(O)C=C2Oc3c(-c4csc(N/N=C/c5ccsc5)n4)c(O)c(C)c(O)c3[C@@]2(C)C1=O` [(+)-3a] registered an IC50 on SARS-CoV-2 3CL^pro [1] of 51 ± 6.33 µM. `CC(=O)C1=C(O)C=C2Oc3c(C(C)=O)c(O)c(C)c(O)c3[C@@]2(C)C1=O` [(+)-1, (R)-(+)-Usnic acid, reference compound]: at SARS-CoV-2 3CL^pro [1], the IC50 was more than 200 µM and the “activity against 3CLpro (in words)” value was “does not inhibit 3CL^pro”. In the case of `CC(=O)C1=C(O)C=C2Oc3c(C(C)=O)c(O)c(C)c(O)c3[C@]2(C)C1=O` [(−)-1, (S)-(−)-Usnic acid, reference compound], the 50% inhibitory concentration (IC50) against SARS-CoV-2 3CL^pro [1] was more than 200 µM. As for `CC(=O)C1=C(O)C=C2Oc3c(-c4csc(N/N=C/c5ccc([N+](=O)[O-])s5)n4)c(O)c(C)c(O)c3[C@]2(C)C1=O` [(−)-3g], on SARS-CoV-2 3CL^pro [1], the IC50 is more than 200 µM and the “activity against 3CLpro (in words)” value is on record as “showed no activity at all”.

For `CC(=O)C1=C(O)C=C2Oc3c(-c4csc(N/N=C/c5cc(Br)cs5)n4)c(O)c(C)c(O)c3[C@@]2(C)C1=O` [(+)-3f], on SARS-CoV-2 3CL^pro [1], half-maximal inhibition (IC50) was put at 50.2 ± 6.75 µM. The same measure, in the same setting: the figure for `CC(=O)C1=C(O)C=C2Oc3c(-c4csc(N/N=C/c5cc(Br)cs5)n4)c(O)c(C)c(O)c3[C@]2(C)C1=O` [(−)-3f] is 72.8 ± 9.55 µM. `CC(=O)C1=C(O)C=C2Oc3c(-c4csc(N/N=C/c5ccc(C)s5)n4)c(O)c(C)c(O)c3[C@]2(C)C1=O` [(−)-3d]: at SARS-CoV-2 3CL^pro [1], 41 ± 5.89 µM corresponded to half-maximal inhibition (IC50) and the “activity against 3CLpro (in words)” value is “moderately inhibited the protease”.

`CC(=O)C1=C(O)C=C2Oc3c(-c4csc(N/N=C/c5sccc5C)n4)c(O)c(C)c(O)c3[C@]2(C)C1=O` [(−)-3c] registered an IC50 on SARS-CoV-2 3CL^pro [1] of 48 ± 6.21 µM. On to `CC(=O)C1=C(O)C=C2Oc3c(-c4csc(N/N=C/c5ccc(Br)s5)n4)c(O)c(C)c(O)c3[C@@]2(C)C1=O` [(+)-3e], for which the maximal velocity (Vmax) on SARS-CoV-2 3CL^pro [2] was found to be 334.26 ± 39.08 nM/s. In addition, on SARS-CoV-2 3CL^pro [1], the half-maximal inhibitory concentration (IC50) was 28.2 ± 1.41 µM and the “activity against 3CLpro (in words)” value is on record as “the highest but not strong activity”. On SARS-CoV-2 3CL^pro [1], `CC(=O)C1=C(O)C=C2Oc3c(-c4csc(N/N=C/c5ccsc5)n4)c(O)c(C)c(O)c3[C@]2(C)C1=O` [(−)-3a] gave an IC50 of 41.6 ± 4.97 µM. For the molecule `CC(=O)C1=C(O)C=C2Oc3c(-c4csc(N/N=C/c5cccs5)n4)c(O)c(C)c(O)c3[C@]2(C)C1=O` [(−)-3b], the half-maximal inhibitory concentration (IC50) on SARS-CoV-2 3CL^pro [1] is 40.4 ± 5.65 µM. Still for that read-out and setting: the figure for `CC(=O)C1=C(O)C=C2Oc3c(-c4csc(N/N=C/c5cccs5)n4)c(O)c(C)c(O)c3[C@@]2(C)C1=O` [(+)-3b] is 49.7 ± 6.12 µM. As for `CC(=O)C1=C(O)C=C2Oc3c(-c4csc(N/N=C/c5ccc(C)s5)n4)c(O)c(C)c(O)c3[C@@]2(C)C1=O` [(+)-3d], on SARS-CoV-2 3CL^pro [1], the IC50 stood at 40.7 ± 5.11 µM and the “activity against 3CLpro (in words)” value is listed as “moderately inhibited the protease”. As for `CC(=O)C1=C(O)C=C2Oc3c(-c4csc(N/N=C/c5ccc([N+](=O)[O-])s5)n4)c(O)c(C)c(O)c3[C@@]2(C)C1=O` [(+)-3g], on SARS-CoV-2 3CL^pro [1], the IC50 is more than 200 µM and the “activity against 3CLpro (in words)” value is recorded as “showed no activity at all; also recorded: did not show this activity”. The corresponding values for `CC(=O)C1=C(O)C=C2Oc3c(-c4csc(N/N=C/c5ccc(Br)s5)n4)c(O)c(C)c(O)c3[C@]2(C)C1=O` [(−)-3e] are 85.8 ± 10.1 µM and “almost three times less effectively”. At SARS-CoV-2 3CL^pro [1], `CC(=O)C1=C(O)C=C2Oc3c(-c4csc(N/N=C/c5sccc5C)n4)c(O)c(C)c(O)c3[C@@]2(C)C1=O` [(+)-3c] had an IC50 of 34 ± 4.45 µM.
